# Assay results: US20260068882A1, “ARTHROPOD CONTROLLING COMPOSITION” (Firmenich SA, priority 2019, published 2026)
# How the values were obtained:
# Aedes aegypti = test: In vitro Warm Body assay, mosquitoes landing on treated warm body; format: in vivo
# How it was run: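 Adapted Warm Body assay with host-seeking, non-blood-fed, sugar-fed A. aegypti Rockefeller females aged 5–10 days (10–12 days in one set); cages held 30 (or 25) females at 150 lux. Landings were counted automatically. Doses in ethanol were 0.0016%, 0.04% and 1% in triplicate, or a single replicate across 0.0016–1%.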
# Ixodes ricinus = test: In vitro Warm Plate Assay for ticks; format: in vivo
# How it was run: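 Repellency against last-stage Ixodes ricinus nymphs in an in vitro warm plate assay, compounds diluted in ethanol at 0.4 and 10 mg/mL, 0.0016% to 1%, or 20% (w/w). Ticks walking down or falling from the treated plate scored as affected, walking up as unaffected; groups of 12 ticks, n=2-5.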
smiles,measurement,setting,value
"c1ccc2c(c1)CC1COCOC21 (centres unmarked) [ingredient #3, 4,4A,5,9B-tetrahydro-indeno[1,2-D]-1,3-dioxin]",reduction of landing,Aedes aegypti; 0.0016% (Table 7),5%
same,number of mosquitoes landed on the Warm Body,Aedes aegypti; 0.0016% in ethanol (Table 6),76
same,number of mosquitoes landed on the Warm Body,"Aedes aegypti; 0.0016% in ethanol (Table 7, one replicate)",76
same,number of mosquitoes landed on the Warm Body,"Aedes aegypti; 0.008% in ethanol (Table 7, one replicate)",61
same,number of mosquitoes landed on the Warm Body,"Aedes aegypti; 0.0119% in ethanol (Table 7, one replicate)",42
same,number of mosquitoes landed on the Warm Body,Aedes aegypti; 0.04% in ethanol (Table 6),6
same,number of mosquitoes landed on the Warm Body,"Aedes aegypti; 0.04% in ethanol (Table 7, one replicate)",6
same,number of mosquitoes landed on the Warm Body,"Aedes aegypti; 0.0598% in ethanol (Table 7, one replicate)",4
same,number of mosquitoes landed on the Warm Body,"Aedes aegypti; 0.2% in ethanol (Table 7, one replicate)",0
same,number of mosquitoes landed on the Warm Body,"Aedes aegypti; 0.447% in ethanol (Table 7, one replicate)",2
same,number of mosquitoes landed on the Warm Body,Aedes aegypti; 1% in ethanol (Table 6),2
same,number of mosquitoes landed on the Warm Body,"Aedes aegypti; 1% in ethanol (Table 7, one replicate)",2
same,percentage of ticks being affected,Ixodes ricinus; 0.00032% (Table 9),0%
same,percentage of ticks being affected,Ixodes ricinus; 0.00071% (Table 9),8%
same,percentage of ticks being affected,Ixodes ricinus; 0.0016% (Table 9),0%
same,percentage of ticks being affected,Ixodes ricinus; 0.00357% (Table 9),0%
same,percentage of ticks being affected,Ixodes ricinus; 0.0053% (Table 9),0%
same,percentage of ticks being affected,Ixodes ricinus; 0.008% (Table 9),0%
same,percentage of ticks being affected,Ixodes ricinus; 0.0119% (Table 9),0%
same,percentage of ticks being affected,Ixodes ricinus; 0.0178% (Table 9),0%
same,percentage of ticks being affected,Ixodes ricinus; 0.0267% (Table 9),0%
same,percentage of ticks being affected,Ixodes ricinus; 0.04% (Table 9),13%
same,percentage of ticks being affected,Ixodes ricinus; 0.0598% (Table 9),6%
same,percentage of ticks being affected,Ixodes ricinus; 0.089% (Table 9),0%
same,percentage of ticks being affected,Ixodes ricinus; 0.2% (Table 9),24%
same,percentage of ticks being affected,Ixodes ricinus; 0.447% (Table 9),67%
same,percentage of ticks being affected,Ixodes ricinus; 1% (Table 9),92%
same,percentage of ticks affected overtime,"Ixodes ricinus; 20% (w/w) in ethanol, 0.25 h post-application",100%
same,percentage of ticks affected overtime,"Ixodes ricinus; 20% (w/w) in ethanol, 0.5 h post-application",92%
same,percentage of ticks affected overtime,"Ixodes ricinus; 20% (w/w) in ethanol, 1 h post-application",8%
same,percentage of ticks affected overtime,"Ixodes ricinus; 20% (w/w) in ethanol, 2 h post-application",17%
same,percentage of ticks affected overtime,"Ixodes ricinus; 20% (w/w) in ethanol, 4 h post-application",15%
same,percentage of ticks affected overtime,"Ixodes ricinus; 20% (w/w) in ethanol, 6 h post-application",33%
same,ticks' repellency overtime (in words),"Ixodes ricinus; 20% (w/w) in ethanol, Table 14",very effective at the first time points
same,pest or weed control at 0.0016 %,"Ixodes ricinus; Ixodes ricinus, 0.0016% in ethanol (Table 12), read-out: percentage of ticks affected on the Warm Plate",0%
same,pest or weed control at 0.0053 %,"Ixodes ricinus; Ixodes ricinus, 0.0053% in ethanol (Table 12), read-out: percentage of ticks affected on the Warm Plate",0%
same,pest or weed control at 0.008 %,"Ixodes ricinus; Ixodes ricinus, 0.008% in ethanol (Table 12), read-out: percentage of ticks affected on the Warm Plate",0%
same,pest or weed control at 0.0119 %,"Ixodes ricinus; Ixodes ricinus, 0.0119% in ethanol (Table 12), read-out: percentage of ticks affected on the Warm Plate",0%
same,pest or weed control at 0.0178 %,"Ixodes ricinus; Ixodes ricinus, 0.0178% in ethanol (Table 12), read-out: percentage of ticks affected on the Warm Plate",0%
same,pest or weed control at 0.0267 %,"Ixodes ricinus; Ixodes ricinus, 0.0267% in ethanol (Table 12), read-out: percentage of ticks affected on the Warm Plate",0%
same,pest or weed control at 0.04 %,"Ixodes ricinus; Ixodes ricinus, 0.04% in ethanol (Table 12), read-out: percentage of ticks affected on the Warm Plate",13%
same,pest or weed control at 0.0598 %,"Ixodes ricinus; Ixodes ricinus, 0.0598% in ethanol (Table 12), read-out: percentage of ticks affected on the Warm Plate",6%
same,pest or weed control at 0.089 %,"Ixodes ricinus; Ixodes ricinus, 0.089% in ethanol (Table 12), read-out: percentage of ticks affected on the Warm Plate",0%
same,pest or weed control at 0.2 %,"Ixodes ricinus; Ixodes ricinus, 0.2% in ethanol (Table 12), read-out: percentage of ticks affected on the Warm Plate",24%
same,pest or weed control at 0.447 %,"Ixodes ricinus; Ixodes ricinus, 0.447% in ethanol (Table 12), read-out: percentage of ticks affected on the Warm Plate",67%
same,pest or weed control at 1 %,"Ixodes ricinus; Ixodes ricinus, 1% in ethanol (Table 12), read-out: percentage of ticks affected on the Warm Plate",92%
same,ticks affected,Ixodes ricinus; dose of 0.598%,6%
